# In patent US9428465B2, “Acid ceramidase inhibitors and their use as medicaments” (FONDAZIONE ISTITUTO ITALIANO DI TECHNOLOGIA, priority 2012, dated 2016):
# Molecular target: human acid ceramidase (hAC) (Homo sapiens (Human), UniProt Q13510)
# Assay: Human acid ceramidase (hAC) activity assay, UPLC/MS of lauric acid
# Assay type: biochemical
# Conditions: at 0.5 μM; read-out: hAC percent inhibition
# Procedure: Human acid ceramidase (hAC) cDNA was purchased from Open Biosystem (clone ID 3923451) and subcloned in the mammalian expression vector pCDNA3.1, containing the neomycin resistance gene. The cell line HEK293 was transfected with hAC-pCDNA3.1 construct using JetPEI reagent (Polypus Transfection™, Illkirch, FR) following the manufacturer instructions. A stable cell line of hAC-overexpressing HEK293 was generated by selection with G418 (1 mg/ml) and cell clones were derived by limited dilution plating. hAC-expressing clones were analyzed by western blot.
# Hek293 cells overexpressing hAC were suspended in 20 mM Tris HCl (pH 7.5) containing 0.32M sucrose, sonicated and centrifuged at 800×g for 15 min at 4° C. The supernatants were centrifuged again at 12,000×g for 30 min at 4° C. The pellets were suspended in phosphate-buffered saline (PBS) and subjected to 2 freeze-thaw cycles at −80° C. The suspensions were centrifuged at 105,000×g for 1 h at 4° C. The supernatants containing hAC were kept at −80° C. until use. Protein concentration was measured using the bicinchoninic acid (BCA) assay (Pierce).
# A hAC protein preparation (10 μg) was preincubated with inhibitors (final DMSO concentration 1%) in assay buffer (100 mM sodium phosphate, 0.1% Nonidet P-40, 150 mM NaCl, 3 mM DTT, 100 mM sodium citrate, pH 4.5) for 30 min at 37° C. Reactions were started by the addition of 50 μM N-lauroyl ceramide (Nu-Chek Prep, Elysian, Minn.) and carried on for 30 min at 37° C. Reactions were stopped by addition of a mixture of chloroform/methanol (2:1, vol/vol) containing 1 nmol 11-lauroleic acid (NuChek Prep). The organic phases were collected, dried under nitrogen and analyzed by UPLC/MS (Acquity, Waters) in the negative-ion mode monitoring the reaction product (lauric acid, m/z=199) using 11-lauroleic acid as internal standard.
# Lipids were eluted on an Acquity UPLC BEH C18 column (50 mm length, 2.1 mm i.d., 1.7 μm pore size, Waters) column at 0.5 mL-min^−1 for 1.5 min with a gradient of acetonitrile (CH3CN) and water, both containing 0.25% acetic acid and 5 mM ammonium acetate (70% to 100% CH3CN in 0.5 min, 100% CH3CN for 0.5 min, 70% CH3CN for 0.4 min). The column temperature was 40° C. Electrospray ionization (ESI) was in the negative mode, capillary voltage was 1 kV and cone voltage was 50 V. Nitrogen was used as drying gas at a flow rate of 500 L/h and at a temperature of 400° C.
# The [M-H]^− ion was monitored in the selected-ion monitoring mode (m/z values: lauric acid 199, 11-lauroleic acid […]). Calibration curves were generated with authentic lauric acid (Nu Check Prep). Inhibition of acid ceramidase activity was calculated as reduction of lauric acid in the samples compared to vehicle controls. IC50 values were calculated by non-linear regression analysis of log [concentration]/inhibition curves using GraphPad Prism 5 (GraphPad Software Inc., CA, USA) applying a standard slope curve fitting.
# Chain of human acid ceramidase (hAC) (Q13510 143-395): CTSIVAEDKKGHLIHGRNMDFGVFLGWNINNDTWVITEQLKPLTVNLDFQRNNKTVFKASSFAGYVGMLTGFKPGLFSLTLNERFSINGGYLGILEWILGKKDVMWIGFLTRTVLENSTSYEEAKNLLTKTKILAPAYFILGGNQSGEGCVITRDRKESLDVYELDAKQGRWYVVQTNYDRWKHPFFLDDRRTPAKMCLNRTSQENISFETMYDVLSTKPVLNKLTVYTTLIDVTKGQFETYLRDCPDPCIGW
# Chain of human acid ceramidase (hAC) (Q13510 22-142): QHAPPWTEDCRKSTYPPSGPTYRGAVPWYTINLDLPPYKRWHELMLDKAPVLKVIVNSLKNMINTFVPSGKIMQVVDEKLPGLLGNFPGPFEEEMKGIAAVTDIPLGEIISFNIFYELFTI
row,Compound,inhibition at 0.5 µM [%]
1,"O=C(NCCCCCc1ccc(F)cc1)n1ccc(=O)[nH]c1=O [Example 34, N-[5-(4-fluorophenyl)pentyl]-2,4-dioxo-pyrimidine-1-carboxamide]",99

# Same assay, conditions: at 1 μM; read-out: hAC percent inhibition
row,Compound,inhibition at 1 µM [%]
1,"CCCCCCNC(=O)n1cc(-c2ccc(F)cc2)c(=O)[nH]c1=O [Example 18, 5-(4-fluorophenyl)-N-hexyl-2,4-dioxo-pyrimidine-1-carboxamide]",74
2,"CCCCCCNC(=O)n1cc(-c2ccc(OC)cc2)c(=O)[nH]c1=O [Example 19, N-hexyl-5-(4-methoxyphenyl)-2,4-dioxo-pyrimidine-1-carboxamide]",52
3,"CCCCCCNC(=O)n1cc(-c2ccc(C)cc2)c(=O)[nH]c1=O [Example 20, N-hexyl-2,4-dioxo-5-(p-tolyl)pyrimidine-1-carboxamide]",54
4,"CCCCCCNC(=O)n1cc(-c2ccc(C(F)(F)F)cc2)c(=O)[nH]c1=O [Example 21, N-hexyl-2,4-dioxo-5-[4-(trifluoromethyl)phenyl]pyrimidine-1-carboxamide]",86
5,"CCCCCCNC(=O)n1cc(-c2ccc3ccccc3c2)c(=O)[nH]c1=O [Example 22, N-Hexyl-5-(2-naphthyl)-2,4-dioxo-pyrimidine-1-carboxamide]",64
6,"CCCCCCNC(=O)n1cc(Br)c(=O)n(C)c1=O [Example 25, 5-Bromo-N-hexyl-3-methyl-2,4-dioxo-pyrimidine-1-carboxamide]",96
7,"CCCCCCNC(=O)n1cc(-c2ccccc2)c(=O)n(C(=O)OCC(C)C)c1=O [Example 26, Isobutyl 3-(hexylcarbamoyl)-2,6-dioxo-5-phenyl-pyrimidine-1-carboxylate]",100
8,"CCCCCCNC(=O)n1cc(Cl)c(=O)n(C(=O)OCC(C)C)c1=O [Example 30, Isobutyl 5-chloro-3-(hexylcarbamoyl)-2,6-dioxo-pyrimidine-1-carboxylate]",100
9,"CCCCCCNC(=O)n1cc(-c2cccnc2)c(=O)[nH]c1=O [Example 31, N-hexyl-2,4-dioxo-5-(3-pyridyl)pyrimidine-1-carboxamide]",99
10,"O=C(NCCCCCc1ccccc1)n1ccc(=O)[nH]c1=O [Example 33, 2,4-dioxo-N-(5-phenylpentyl)pyrimidine-1-carboxamide]",100

# Same assay, conditions: human acid ceramidase, 50 μM N-lauroyl ceramide, pH 4.5
row,Compound,IC50 [nM]
1,"CCCCCCNC(=O)n1cc(-c2ccccc2)c(=O)[nH]c1=O [Example 14, N-hexyl-2,4-dioxo-5-phenyl-pyrimidine-1-carboxamide]",155
2,"CCCCCCNC(=O)n1cc(Br)c(=O)n(C(=O)OC)c1=O [Example 23, Methyl 5-bromo-3-(hexylcarbamoyl)-2,6-dioxo-pyrimidine-1-carboxylate]",270
3,"CCCCCCNC(=O)n1cc(Br)c(=O)n(C(=O)OCC(C)C)c1=O [Example 24, Isobutyl 5-bromo-3-(hexylcarbamoyl)-2,6-dioxo-pyrimidine-1-carboxylate]",14

# Molecular target: rat acid ceramidase (rAC) (Rattus norvegicus (Rat), UniProt Q6P7S1)
# Assay: Rat acid ceramidase (rAC) enzymatic assay, LC/MS of lauric acid
# Assay type: biochemical
# Conditions: at 0.3 μM; read-out: rAC percent inhibition
# Procedure: A lysosomal rat acid ceramidase (rAC) protein preparation was obtained from cells stably expressing rAC resuspended in 20 mM Tris HCl (pH 7.5) with 0.32 M sucrose. Samples were sonicated and centrifuged at 800×g for 15 min at 4° C. Supernatants were then centrifuged at 12,000×g for 30 min at 4° C. Pellets were re-suspended in PBS pH 7.4 and subjected to 2 freeze-thaw cycles at −80° C. The suspension was finally centrifuged at 105,000×g for 1 hr at 4° C. and the supernatant containing rAC was then used in the enzymatic assay.
# r-AC protein samples were pre-incubated with various concentrations of test compounds or vehicle control in 100 mM NaH2PO4/citrate buffer pH 4.5, 0.1% Nonidet P-40, 3 mM DTT for 30 min at 37° C. Samples were incubated with 100 μM N-lauroyl ceramide (Nu-Chek Prep, Elysian, Minn.) at 37° for 30 min. The reaction was stopped by addition of a mixture of chloroform/methanol (2:1 vol/vol) containing 1 nmol of heptadecanoic acid (HDA; NuChek Prep). The organic phases were collected, dried under nitrogen, and analyzed by LC/MS in the negative-ion mode using heptadecanoic acid (HDA) as internal standard (m/z=199 for lauric acid, m/z=269 for HDA). HDA was eluted on an XDB Eclipse C18 column isocratically at 2.2 mL/min for 1 min with a solvent mixture of 95% methanol and 5% water, both containing 0.25% acetic acid, and 5 mM ammonium acetate. The column temperature was 50° C. Electrospray ionization (ESI) was in the negative mode, capillary voltage was 4 kV, and fragmentor voltage was 100 V. Nitrogen was used as drying gas at a flow rate of 13 L/min and at a temperature of 350° C. Nebulizer pressure was set at 60 psi. We monitored [M-H]− in the selected-ion monitoring (SIM) mode using HDA as internal standard.
# Inhibition of rAC activity was calculated as a reduction of lauric acid in the samples compared to vehicle controls. Median inhibitory concentration (IC50) values were calculated by non-linear regression analysis of log [concentration]/inhibition curves using. GraphPad Prism 5 (GraphPad Software, Inc., CA, USA) applying a standard slope curve fitting.
# Chain of rat acid ceramidase (rAC) (Q6P7S1 142-394): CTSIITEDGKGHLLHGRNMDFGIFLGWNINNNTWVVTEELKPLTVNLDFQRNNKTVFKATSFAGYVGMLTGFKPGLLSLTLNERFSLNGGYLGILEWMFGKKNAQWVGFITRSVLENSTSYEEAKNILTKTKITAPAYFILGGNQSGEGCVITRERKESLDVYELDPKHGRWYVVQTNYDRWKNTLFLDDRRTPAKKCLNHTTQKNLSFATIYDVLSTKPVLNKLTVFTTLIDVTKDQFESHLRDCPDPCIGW
# Chain of rat acid ceramidase (rAC) (Q6P7S1 21-141): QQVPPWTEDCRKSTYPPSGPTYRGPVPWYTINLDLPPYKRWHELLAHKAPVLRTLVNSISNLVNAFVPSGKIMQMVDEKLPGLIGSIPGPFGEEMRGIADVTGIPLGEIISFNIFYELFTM
row,Compound,inhibition at 0.3 µM [%]
1,"O=C(NCCCCc1ccccc1)n1ccc(=O)[nH]c1=O [Example 1, 2,4-dioxo-N-(4-phenylbutyl)pyrimidine-1-carboxamide]",65

# Same assay, conditions: rat acid ceramidase, 100 μM N-lauroyl ceramide, pH 4.5
row,Compound,IC50 [nM]
1,"CCCCCCNC(=O)n1cc(Cl)c(=O)[nH]c1=O [Example 3, 5-Chloro-N-hexyl-2,4-dioxo-pyrimidine-1-carboxamide]",67
2,"CCCCCCNC(=O)n1cc(CO)c(=O)[nH]c1=O [Example 7, N-hexyl-5-(hydroxymethyl)-2,4-dioxo-pyrimidine-1-carboxamide]",420
3,"CCCCCCNC(=O)n1cc(I)c(=O)[nH]c1=O [Example 8, N-hexyl-5-iodo-2,4-dioxo-pyrimidine-1-carboxamide]",147
4,"CCCCCCNC(=O)n1cc(OC)c(=O)[nH]c1=O [Example 9, N-hexyl-5-methoxy-2,4-dioxo-pyrimidine-1-carboxamide]",1100
5,"CCCCCCNC(=O)n1cc(N(C)Cc2ccccc2)c(=O)[nH]c1=O [Example 10, 5-(benzyl(methyl)amino)-N-hexyl-2,4-dioxo-pyrimidine-1-carboxamide]",5500
6,"CCCCCCNC(=O)n1cc(NC)c(=O)[nH]c1=O [Example 11, N-hexyl-5-methylamino-2,4-dioxo-pyrimidine-1-carboxamide]",3400
7,"CCCCCCNC(=O)n1cc(N2CCOCC2)c(=O)[nH]c1=O [Example 12, N-hexyl-5-morpholino-2,4-dioxo-pyrimidine-1-carboxamide]",880
8,"CCCCCCNC(=O)n1cc(N2CCN(C)CC2)c(=O)[nH]c1=O [Example 13, N-hexyl-5-(4-methylpiperazin-1-yl)-2,4-dioxo-pyrimidine-1-carboxamide]",1400
9,"CCCCCCNC(=O)n1cc(C)c(=O)n(CC2CC2)c1=O [Example 16, 3-(cyclopropylmethyl)-N-hexyl-5-methyl-2,4-dioxo-pyrimidine-1-carboxamide]",40
10,"CCCCCCCCNC(=O)n1cc(C(F)(F)F)c(=O)[nH]c1=O [Example 32, N-octyl-2,4-dioxo-5-(trifluoromethyl)pyrimidine-1-carboxamide]",7

# System: SW403 cells
# Assay: SW403 cell viability, MTT assay
# Assay type: cell-based, human
# Conditions: sub-chronic treatment 72 hrs; compounds 30 μM, 5FU 300 nM
# Procedure: Cells were seeded in 12- or 96-well plates in complete medium 24 hrs before treatment and then incubated for 24 hrs (single treatment) or 72 hrs (multiple treatments) with different drug concentrations in media without serum. Cell viability was then evaluated.
# Alternatively, cell viability was assessed measuring mitochondrial functionality by the MIT assay, which is based on the reduction of the soluble tetrazolium salt MTT [(3-(4,5-dimethylthiazol-2-yl)-2,5-diphenyltetrazolium bromide] into insoluble formazan by mitochondria. Briefly, after treatment, cells were washed with PBS and incubated with 0.5 mg/ml, MTT for 2 hrs at room temperature, MTT reduction was quantified by absorbance at 570 nm using a UV-visible plate reader.
row,Compound,SW403 cell viability (MTT assay)
1,"O=c1[nH]cc(F)c(=O)[nH]1 [5-fluorouracil, reference compound]",reduced cell viability
